Columns and labels:
Assay in all cases: area under growth-rate inhibition curve (AUC GRI) (dimensionless (GR-based AUC)); higher = less growth inhibition
Settings in all cases: exposure time: 72 h; concentrations: 0.1, 1, 10 uM
SKBR3-LTR = system: SKBR3-LTR
Method in brief: (§1)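 Nuclear counts from Hoechst 33342- or DAPI-stained images were used to estimate the area under the growth-rate inhibition curve, with growth corrected by reference to untreated and DMSO-treated plates and starting plates. The six breast cancer cell line models, comprising two triple-negative lines and parental and drug-combination-resistant HER2+ lines, were treated with compound at 0.1, 1 or 10 µM for 72 h. Data came from 2 biological replicates, using Day 0 and Day 3 plates.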

MDA-MB-468 = system: MDA-MB-468
Method in brief: as §1

MDA-MB-231 = system: MDA-MB-231
Method in brief: as §1

BT474-P = system: BT474-P
Method in brief: as §1

SKBR3-P = system: SKBR3-P
Method in brief: as §1

BT474-LTR = system: BT474-LTR
Method in brief: as §1

Row | Structure (SMILES) | area under growth-rate inhibition curve (SKBR3-LTR) | area under growth-rate inhibition curve (MDA-MB-468) | area under growth-rate inhibition curve (MDA-MB-231) | area under growth-rate inhibition curve (BT474-P) | area under growth-rate inhibition curve (SKBR3-P) | area under growth-rate inhibition curve (BT474-LTR)
1 | CC(C)(C)NC[C@@H](O)COc1nsnc1N1CCOCC1.O=C(O)/C=C\C(=O)O [Timolol Maleate] | 1.06 | 1.04 | 1.03 | 1.04 | 1.02 | 1.11
2 | C[N+]1(C)[C@@H]2CC(OC(=O)C(O)(c3cccs3)c3cccs3)C[C@H]1C1OC12.O.[Br-] (some centres not stated) [Tiotropium Bromide hydrate] | 1.04 | 1.03 | 1.05 | 1.05 | 1.02 | 1.12
3 | Cl.Clc1ccc2nsnc2c1NC1=NCCN1 [Tizanidine HCl] | 1.01 | 1.02 | 1.02 | 1.02 | 1 | 1.07
4 | [Cl-].[H+].c1ccc(CC2=NCCN2)cc1 [Tolazoline HCl] | 1.1 | 1.05 | 1.04 | 1.06 | 1.02 | 1.1
5 | Cc1ccc(O)c([C@H](CCN(C(C)C)C(C)C)c2ccccc2)c1.O=C(O)[C@H](O)[C@@H](O)C(=O)O [Tolterodine tartrate] | 1.06 | 1.04 | 1.03 | 1.04 | 0.972 | 1.12
6 | Cc1ccccc1C(=O)Nc1ccc(C(=O)N2CCCC(O)c3cc(Cl)ccc32)c(C)c1 (configuration not stated) [Tolvaptan] | 1.03 | 1.02 | 1.01 | 1 | 1.02 | 1.03
7 | CC1(C)O[C@@H]2[C@@H](CO[C@@]3(COS(N)(=O)=O)OC(C)(C)O[C@@H]23)O1 [Topiramate] | 1.04 | 1.05 | 1.03 | 1.02 | 1.02 | 1.05
8 | CN(C)CCOc1ccc(/C(=C(/CCCl)c2ccccc2)c2ccccc2)cc1.O=C(O)CC(O)(CC(=O)O)C(=O)O [Toremifene Citrate] | 0.977 | 0.908 | 0.941 | 0.893 | 0.98 | 0.945
9 | CCC(COC(=O)c1cc(OC)c(OC)c(OC)c1)(c1ccccc1)N(C)C (configuration not stated) [Trimebutine] | 1 | 0.984 | 0.972 | 0.981 | 1.03 | 0.977
10 | CCN(Cc1ccncc1)C(=O)C(CO)c1ccccc1 (configuration not stated) [Tropicamide] | 1.07 | 1.01 | 1.02 | 1.05 | 1.01 | 1.09
11 | CN1[C@@H]2CC[C@H]1CC(OC(=O)C1C=Nc3ccccc31)C2.[Cl-].[H+] (some centres not stated) [Tropisetron] | 1.06 | 1.02 | 1.03 | 1.02 | 0.976 | 1.09
12 | O=C(O[C@H]1C[C@H]2CC[C@@H](C1)[N+]21CCCC1)C(O)(c1ccccc1)c1ccccc1.[Cl-] [Trospium chloride] | 1.09 | 1.06 | 1.04 | 1.06 | 1 | 1.11
13 | COc1ccccc1N1CCN(CCCNc2cc(=O)n(C)c(=O)n2C)CC1.[Cl-].[H+] [Urapidil HCl] | 1.09 | 1.04 | 1.02 | 1.03 | 1.04 | 1.1
14 | COc1ccc(C(CN(C)C)C2(O)CCCCC2)cc1 (configuration not stated) [Venlafaxine] | 1.01 | 0.994 | 0.983 | 0.982 | 0.972 | 0.974
15 | CS(=O)(=O)c1ccc(C(=O)Nc2ccc(Cl)c(-c3ccccn3)c2)c(Cl)c1 [Vismodegib (GDC-0449)] | 1.03 | 0.997 | 1.03 | 1.03 | 1.03 | 1.08
16 | CCOC(=O)NC1CCC2C(C1)CC1C(=O)OC(C)C1C2C=Cc1ccc(-c2cccc(F)c2)cn1 (configuration not stated) [Vorapaxar] | 0.983 | 0.966 | 1.01 | 0.947 | 0.944 | 1.04

Row | Structure (SMILES) | area under growth-rate inhibition curve (SKBR3-LTR) | area under growth-rate inhibition curve (MDA-MB-468) | area under growth-rate inhibition curve (MDA-MB-231) | area under growth-rate inhibition curve (BT474-P) | area under growth-rate inhibition curve (SKBR3-P) | area under growth-rate inhibition curve (BT474-LTR)
17 | c1ccc(NCc2ccc(CNc3ccccn3)cc2)nc1 [WZ811] | 1.04 | 1.04 | 1.02 | 1.02 | 1.01 | 1.08
18 | Cc1cccc(C)c1NC1=NCCCS1.[Cl-].[H+] [Xylazine HCl] | 1.07 | 1.04 | 1.02 | 1.04 | 1.01 | 1.12
19 | COc1nc(C)cnc1NS(=O)(=O)c1cccnc1-c1ccc(-c2nnco2)cc1 [Zibotentan (ZD4054)] | 1.04 | 1.01 | 1.03 | 1.02 | 0.958 | 1.07
20 | CC(c1cc2ccccc2s1)N(O)C(N)=O (configuration not stated) [Zileuton] | 1.05 | 1.05 | 1.04 | 1.04 | 1.04 | 1.07
21 | O=C1Cc2cc(CCN3CCN(c4nsc5ccccc45)CC3)c(Cl)cc2N1.[Cl-].[H+] [Ziprasidone hydrochloride] | 1.05 | 1.03 | 1.03 | 0.993 | 1 | 1.06
22 | CN(C)CCc1c[nH]c2ccc(C[C@H]3COC(=O)N3)cc12 [Zolmitriptan] | 1.07 | 1.05 | 1.06 | 1.06 | 1.03 | 1.09
23 | CN(C)CCOC(c1ccc(Cl)cc1)c1ccccn1 (configuration not stated) [carbinoxamine] | 1.06 | 1.04 | 1.04 | 0.999 | 1.03 | 1.04
24 | CN1CC(C(=O)NC2(C)OC3(O)C4CCCN4C(=O)C(Cc4ccccc4)N3C2=O)C=C2c3cccc4[nH]cc(c34)CC21 (configuration not stated) [ergotamine] | 1.06 | 1 | 1.03 | 1.01 | 1.02 | 1.03
25 | Nc1cc(-c2ccncc2)c[nH]c1=O [inamrinone] | 1.05 | 1.06 | 1.04 | 0.994 | 1.03 | 1.03
26 | CC(C)C1NC(=O)C(CCCCN)NC(=O)C(Cc2c[nH]c3ccccc23)NC(=O)C(Cc2ccc(O)cc2)NC(=O)C(NC(=O)C(N)Cc2ccc3ccccc3c2)CSSCC(C(=O)NC(C(N)=O)C(C)O)NC1=O (configuration not stated) [lanreotide] | 1.01 | 1.02 | 0.986 | 1 | 1.01 | 1
27 | Nc1cccc2c1CN(C1CCC(=O)NC1=O)C2=O (configuration not stated) [lenalidomide] | 1.06 | 1.04 | 1.04 | 1.01 | 1.02 | 1.03
28 | CCOC(=O)C1(c2ccccc2)CCN(C)CC1 [meperidine] | 1.06 | 1.04 | 1.04 | 0.992 | 1.02 | 1.04
29 | COc1ccc(OC)c(C(O)C(C)N)c1 (configuration not stated) [methoxamine] | 1.04 | 1.05 | 1.05 | 1.01 | 1.05 | 1.07
30 | CCc1c(C)[nH]c2c1C(=O)C(CN1CCOCC1)CC2 (configuration not stated) [molindone] | 1.05 | 1.06 | 1.05 | 1.01 | 1.03 | 1.04
31 | CCN(CC)CCOC(=O)c1ccc(N)cc1.[Cl-].[H+] [procaine] | 1.07 | 1.03 | 1.03 | 1.02 | 1.01 | 1.05
32 | Cc1ccc(/C(=C\CN2CCCC2)c2ccccn2)cc1.Cl [trans-Triprolidine hydrochloride] | 1.05 | 1.03 | 1.03 | 1.03 | 1.03 | 1.05

— the supplement of paper PMC9763283
